# Reference: PubChem BioAssay AID1996
# Details: buffer; pH 7.4; 200.0 µM
row,SMILES,solubility kinetic [µg/mL]
1,CSc1nc(=S)n(-c2ccc([N+](=O)[O-])cc2)c(C)c1C(C)=O,48.2
2,Cc1cc(C(=O)N2CCCc3ccccc32)ccc1[N+](=O)[O-],34.7
3,CC(C)N1CCN(Cc2cc3ccccc3[nH]2)CC1CCO (stereo unspecified),> 45.2
4,COCn1cnc(-c2ccccc2)c1-c1ccccc1,32.5
5,O=Cc1c(C(=O)O)n(Cc2ccccc2Cl)c2ccccc12,> 47.1
6,CSc1ccc(CN(C)CC(=O)NCc2ccccc2)cc1,41
7,COc1ccc(/C=C2\N=C(C)OC2=O)cc1OC(C)=O,> 41.3
8,C/C(=N/NC(=O)CNC(=O)c1cccnc1)c1ccco1,> 42.9
9,Cc1cccc(C(=O)OCC(=O)Nc2ccc3c(c2)OCCO3)c1,8.2
10,Cc1nc2ccccc2c2c1CC(C)S2 (stereo unspecified),24.5
11,CC(=O)Nc1csc2ccccc12,> 28.7
12,O=C(Nc1ccccc1)Nc1cnccn1,16.2
13,CC(C)c1ccc(OCCCN2CCCC2)cc1,28.8
14,CC1CCCN(C2(O)C(=O)Nc3ccc([N+](=O)[O-])cc32)C1 (stereo unspecified),16.6
15,COc1cc(OC)cc(C(=O)Nc2ccc3c(c2)OCCO3)c1,44.8
16,CC(C)Cc1ccc(C(C)C(=N)N)cc1.Cl (stereo unspecified),> 36.1
17,CCCSc1nc2sc3c(c2c(=O)n1CC)CC(C)(C)OC3,< 0.4
18,COc1ccc(CCNC(=O)CCC(=O)NC2CCCCC2)cc1OC,> 54.4
19,O=C(NC1CCCC1)c1cc(-c2ccccc2)on1,4
20,O=C1CCCN1C(=O)COc1cc(F)ccc1[N+](=O)[O-],> 42.3
21,Cc1ccc(/C=C(\C#N)C(=O)NC(C)c2ccccc2)o1 (stereo unspecified),8.6
22,CC1(C)CC(=O)N(c2ccc(Cl)c(Cl)c2)C(=O)C1,9.6
23,O=C(COC(=O)C1C2CC3OC(=O)C1C3C2)Nc1ccccc1 (stereo unspecified),> 47.3
24,CC(=O)Nc1ccc(NC(=O)CCSCCc2ccccn2)cc1,> 51.5
25,O=C(c1cc(-c2ccccc2Cl)on1)N1CCCC1,> 41.5

row,SMILES,solubility kinetic [µg/mL]
1,O=C(NN1CCOCC1)c1ccc(Cl)cc1Cl,> 41.3
2,Cn1c(N)c(C(=O)COC(=O)CNC(=O)c2ccccc2F)c(=O)n(C)c1=O,> 58.9
3,CCCC(=O)N(Cc1cc(=O)[nH]c2ccccc12)c1ccccc1C,41.1
4,Fc1cccc(Cl)c1CSC1=NCCS1,2.3
5,CC(Sc1ncccn1)C(=O)NC1CCCC1 (stereo unspecified),> 37.7
6,COc1ccc(CC(=O)N2CCN(c3cccc(C)c3C)CC2)cc1,25.1
7,CC(C(=O)Nc1ccccc1)C(=O)Nc1ccccc1,21.8
8,O=S(=O)(Cc1ccccc1)Nc1ccccc1Br,40.6
9,CC(C)(CC(=O)O)CC(=O)Nc1ccc(Oc2ccc(C(C)(C)C)cc2)nc1,> 57.7
10,O=C(Cn1cnc2c(oc3ccccc32)c1=O)N1CCCC1,> 44.6
11,COc1ccccc1C(=O)OCC(=O)c1ccc(CNC(C)=O)s1,50.1
12,CCCCC(=O)Nc1ccc(C(=O)NCCN2CCOCC2)cc1,> 50
13,COc1ccccc1NC(=S)NC1CCCCCCCCCCC1,< 0.4
14,Nc1cc(=O)[nH]c(SCC(=O)Nc2ccc(S(=O)(=O)N3CCCC3)cc2)n1,> 61.4
15,CCOCCCNCc1cc(Br)ccc1OCC.Cl,> 52.9
16,Fc1ccc(-c2csc(-c3cccnc3)n2)cc1F,0.7
17,COc1ccc2nc(C)cc(Nc3ccc(N4CCN(C)CC4)cc3)c2c1,> 54.4
18,COc1ccc(-c2cc(C(=O)Nc3ccc(OC)cc3OC)no2)cc1,< 0.4
19,Cc1cc(C(=O)Nc2cccc3ccccc23)c(C)o1,4
20,CCc1ccc(CNCc2cccs2)cc1.Cl,23.9
21,CC1(C)CC(=O)C(=CN2CCOCC2)C(=O)C1,> 35.6
22,CC1CCN(C(=O)COC(=O)c2nn(C)c(=O)c3ccccc23)CC1,> 51.5
23,O=[N+]([O-])c1ccc(-c2csc(N3CCCCCC3)n2)cc1,0.6
24,C#CCOc1nc2c(c(=O)n(C)c(=O)n2C)n1Cc1ccccc1,8.9
25,COc1ccc(NC2CCCN(C(=O)c3ccncc3)C2)cc1 (stereo unspecified),> 46.7

row,SMILES,solubility kinetic [µg/mL]
1,O=C(NC1CCCCC1)Oc1cc2oc(=O)sc2cc1Cl,10.1
2,O=C(Nc1ccccc1)NC1(C(=O)N2CCC(O)CC2)CCCCC1,> 51.8
3,CCCc1cc(=O)[nH]c(SCC(=O)NC2CC2)n1,> 40.1
4,O=C(COC(=O)c1cccc2ccccc12)NCC1CCCO1 (stereo unspecified),> 47
5,O=C(Nc1ccc(F)cc1)NC1CCCCCCC1,1.6
6,O=C(O)C1C2C=CC(C2)C1C(=O)NCCCN1CCCC1=O (stereo unspecified),44.2
7,CC1CCC(NC(=O)CN2C(=O)c3ccccc3S2(=O)=O)CC1 (stereo unspecified),> 50.5
8,N#Cc1ccncc1Sc1ccc(Cl)cc1,25.3
9,O=[N+]([O-])c1ccccc1S(=O)(=O)c1ccccc1[N+](=O)[O-],0.8
10,Cc1ccc(S(=O)(=O)N2C(=O)CCC2C(N)=O)cc1 (stereo unspecified),> 42.3
11,COc1ccc2[nH]c(C(=O)Nc3ccc(C)c(F)c3)cc2c1,0.7
12,CNc1cc(Cl)nc(SC)n1,> 28.4
13,S=C(NC1CCCCC1)NC1CC2C=CC1C2 (stereo unspecified),19.5
14,Cc1cccc(NC(=O)c2ccc3c(c2)OCCO3)n1,32.8
15,CC(C)Cn1c(N)c(C(=O)COC(=O)c2cc3ccccc3cc2O)c(=O)n(C)c1=O,4.5
16,CCN(C(=O)COC(=O)/C(C#N)=C/c1ccc(N(C)C)cc1)C1CCS(=O)(=O)C1 (stereo unspecified),4.8
17,Cc1noc(C)c1-c1nc(CS(=O)(=O)c2ccc(Cl)cc2)no1,3.8
18,O=C1N(c2ccccc2)C(c2cccnc2)N2CCCN12 (stereo unspecified),> 42
19,Cc1cnc(C(=O)NC(C)CCc2ccccc2)cn1 (stereo unspecified),> 40.4
20,O=[N+]([O-])c1ccc2c(c1)/C(=N\O)c1ccccc1-2,0.5
21,O=C(NCCc1c[nH]c2ccccc12)c1cnccn1,> 39.9
22,Cc1ccc(S(=O)(=O)Nc2ccccc2C(O)c2ccccc2)cc1 (stereo unspecified),6.1
23,Nc1nc2ccccc2n1CCOc1ccc(Cl)cc1,25.8
24,Cc1cc(C)nc(NC(=O)c2ccccc2O)n1,> 36.5
25,O=S(=O)(NCc1ccc(Cl)cc1)c1cccc2cccnc12,43.2

row,SMILES,solubility kinetic [µg/mL]
1,COc1cc(C(=O)NCC(=O)N2CCN(S(=O)(=O)c3ccccc3C(F)(F)F)CC2)cc(OC)c1OC,> 81.8
2,Cc1ccc(NC(=O)CN2CCCC2)cc1.Cl,> 38.2
3,CC(C)OC(=O)C(C)Nc1ccc(F)c(Cl)c1 (stereo unspecified),5.8
4,CCOc1ccc(NC(=O)Cc2ccc(S(=O)(=O)N3CCCCC3)cc2)cc1OCC,7
5,O=c1c(Cc2ccc(Cl)cc2)c(O)ccn1Cc1cccs1,4.6
6,CCc1nc(CN2CCN(c3cc(C(F)(F)F)ccn3)CC2)c(C)[nH]1,47.6
7,Cc1ccc(-c2csc3ncn(CC(=O)O)c(=O)c23)cc1C,> 47.2
8,CN(CCOc1ccc(F)cc1)Cc1ccccc1.O=C(O)C(=O)O,34.6
9,CCCNC(=O)CSc1nc2ccc(OCC)cc2s1,7.2
10,COc1cccc(N=C(N)N=C(N)N)c1,25.6
11,CSCc1ccc(C(=O)Nc2ccc(C(N)=O)cc2)cc1,0.8
12,CSc1ncccc1C(=O)OCC(=O)NC1CCCC1,> 44.2
13,CCCNc1nc(Cl)nc(NC(C)(C)C)n1,17.1
14,COc1cc(/C=C2\SC(=O)NC2=O)ccc1OCC(=O)N1CCOCC1,> 56.8
15,COc1ccc(NC(=O)c2cc3ccccc3o2)cn1,3.8
16,Clc1cc(/C=N\NC2=NCCN2)cc(Cl)n1,> 38.7
17,O=C(O)C(Cc1ccccc1)n1c(=S)[nH]c2ccccc2c1=O (stereo unspecified),> 49
18,COc1cc(OC)cc(C(=O)NCC(=O)N2CCN(S(=O)(=O)c3ccccc3F)CC2)c1,52.1
19,C=CCNC(=S)Nc1cc(C)ccn1,> 31.1
20,COc1ccc(OCCn2cc(C=O)c3ccccc32)cc1,14.4
21,Clc1ccccc1/C=C/c1nc(-c2cccnc2)no1,0.8
22,CN(CCc1nnc(N)s1)[N+](=O)[O-],> 30.5
23,COc1ccccc1N(C)S(=O)(=O)c1ccc(C(=O)O)cc1,> 48.2
24,CC(=O)N1CC(C(=O)Nc2ccc3c(c2)OCO3)Oc2ccccc21 (stereo unspecified),> 51.1
25,Cc1cc(C)c(OCCN2CCOCC2)c(Cl)c1,26.6

row,SMILES,solubility kinetic [µg/mL]
1,Cc1cc(C)cc(Oc2coc3c(CN(C)C)c(O)ccc3c2=O)c1,> 50.9
2,COc1ccc(C(=O)O/N=C(\C)c2cnccn2)cc1,9
3,CC(=O)N=C1SC2CS(=O)(=O)CC2N1Cc1ccc(C)cc1 (stereo unspecified),19.7
4,COc1cccc(/C=N/NC(=O)CNC(=O)COc2ccccc2)c1O,> 53.6
5,COc1ccc(S(=O)(=O)NCCc2c[nH]c3ccc(Cl)cc23)cc1,18.6
6,COCCCNC(=S)Nc1ccc(N2CCCCC2)cc1,> 46.1
7,CCN(CC(=O)Nc1cccc(OC)c1)C(=O)c1ccncc1,37.2
8,CCOc1ccc2nc(SCC(=O)NCc3ccccc3)[nH]c2c1,44.3
9,Cc1ccc(NC(=O)c2ccc3nsnc3c2)c(Cl)c1,0.5
10,CN(C)CCCNC(=O)N1c2ccccc2Sc2ccccc21,> 49.1
11,Cc1ccc(S(=O)(=O)N2CCC(C(=O)NCc3ccccc3CN3CCCC3)CC2)cc1,66.3
12,COc1ncnc2c1oc1nc(C)c3c(c12)CC(C)(C)OC3,4.9
13,O=C(NCCCn1ccnc1)c1ccc(-c2ccccc2)cc1,> 45.8
14,O=C(NCC1CCCCC1)c1cccnc1Cl,31.7
15,Cc1ccc2[nH]c(C(=O)N3CCN(C(c4ccccc4)c4ccccc4)CC3)cc2c1,1
16,CN1CCN(c2ccc(Cl)cc2NC(=O)/C=C/c2ccc(F)cc2)CC1,38.4
17,CC1CC(C)CN(C(=O)COC(=O)/C=C/c2ccco2)C1 (stereo unspecified),> 43.7
18,CCOc1ccc(S(=O)(=O)NCc2ccc3c(c2)OCO3)cc1,10.9
19,Cc1ccc(NC(=S)NC(=O)c2cncc(Br)c2)c(C)c1,4.5
20,COc1ccc(C(=O)/C=C/Nc2ccc(S(N)(=O)=O)cc2)cc1OC,7.9
21,CC(C)(C)c1ccc(C(=O)Nc2cccnc2)cc1,28
